Measured values reported in patent US7166618B2, “Nitrosated and nitrosylated cyclooxygenase-2 inhibitors, compositions and methods of use” (NitroMed, Inc., priority 1999, dated 2007).

Legend:
[1] = system: carrageenan-induced rat paw edema; experiment: Carrageenan-induced rat paw edema test; assay type: in vivo; conditions: rats dosed intragastrically, paw volume 3 hours after carrageenan
Protocol: The carrageenan-induced rat paw edema test was used to measure antiinflammatory activity. The paw edema test was performed according to the method of Winter et al, Proc. Soc. Exp. Biol. Med. 111: 544–547, 1962. Male Sprague-Dawley rats (200–250 g) were fasted for 24 hours with water ad libitum. The rats were dosed intragastrically with test compounds in a volume of 5 mL/kg. One hour after dosing the paw volume was measured. Then each rat received a subplantar injection of 50 μl of 1% suspension of carrageenan. Three hours later, the paw volume was measured and compared with the initial volume measured […]. The increase in paw volume is presented as the mean±SEM for 5 rats per group. Data were analyzed by performing an ANOVA test followed by a Student-Keuls post hoc test.

[2] = system: rat aortic smooth muscle rings; experiment: Relaxation of phenylephrine-contracted rat aortic smooth muscle rings; conditions: rings precontracted with 10 μM phenylephrine
Protocol: Male Sprague-Dawley rats (Charles River Laboratories (Wilmington, Mass.) were euthanized by intraperiton injection of a high dose of sodium pentobarbitone (80–100 mg/kg). The thoracic aorta was rapidly excised and immediately placed in a Petri dish containing warm (37° C.) oxygenated (95% O2 and 5% CO2) Kreb's buffer (composition per millimolar: NaCl (119); KCl (4.69); CaCl2.H2O (2.52); MgSO4.7H2O (0.57); NaHCO3 (25); NaH2PO4.H2O (1.01) and glucose (11.1). Under a stereoscopic dissecting microscope, the aorta was cleaned, freed from adhering fat and connective tissues. The tissue was cut into ring segments, each approximately 2–3 mm in length.
For experiments to measure relaxation of the tissue under various conditions, a stainless steel tissue holder and an U-shaped stainless steel wire were inserted into the lumen of the aortic ring. The tissue holder anchored the ring at the bottom of the organ bath whereas the end of the U-shaped steel wire was tied with fine silk thread so that it connected to the FT-202 transducer. The tissue holder and the steel wire along with the aortic ring were then suspended in a 5-mL double-jacketed temperature-controlled glass organ bath (Radnoti Glass Technology, Inc., Monrovia, Calif.) filled with fresh Kreb's buffer. A mixture of 95% O2 and 5% CO2 was bubbled through a porous sintered disc at the bottom of the bath. The rings were given an initial resting tension of 1.5 g and the preparation was allowed to equilibrate at the initial tension for about 90 minutes. During this equilibration period, the bath fluid was changed every 15 minutes and replaced with fresh prewarmed (37° C.) Kreb's buffer. The isometric tension of the aortic muscle at rest and its response to different stimuli were recorded on a Power Macintosh 6100 computer via a MacLab 8/S computer interface (CB Sciences, Inc, Milford, Mass.) after an initial amplification through a low-noise ETH-400 bioamplifier (CB Sciences, Inc, Milford, Mass.). Contractile responsiveness of the tissue strips was established with 10 μM phenylephrine and the strips were incubated with the drug for 20 minutes to establish a steady level of contraction. To test the relaxation effects, test compounds were added to the phenylephrine-precontracted strips in the tissue bath at cumulative concentrations of 0.1 μM to 0.1 mM. Concentration of test compounds was increased only after relaxation at the previous concentration had reached a plateau level.

[3] = target: T1, ovine COX-1 (Ovis aries, UniProt P05979); experiment: biochemical
T1 sequence (P05979 25-600): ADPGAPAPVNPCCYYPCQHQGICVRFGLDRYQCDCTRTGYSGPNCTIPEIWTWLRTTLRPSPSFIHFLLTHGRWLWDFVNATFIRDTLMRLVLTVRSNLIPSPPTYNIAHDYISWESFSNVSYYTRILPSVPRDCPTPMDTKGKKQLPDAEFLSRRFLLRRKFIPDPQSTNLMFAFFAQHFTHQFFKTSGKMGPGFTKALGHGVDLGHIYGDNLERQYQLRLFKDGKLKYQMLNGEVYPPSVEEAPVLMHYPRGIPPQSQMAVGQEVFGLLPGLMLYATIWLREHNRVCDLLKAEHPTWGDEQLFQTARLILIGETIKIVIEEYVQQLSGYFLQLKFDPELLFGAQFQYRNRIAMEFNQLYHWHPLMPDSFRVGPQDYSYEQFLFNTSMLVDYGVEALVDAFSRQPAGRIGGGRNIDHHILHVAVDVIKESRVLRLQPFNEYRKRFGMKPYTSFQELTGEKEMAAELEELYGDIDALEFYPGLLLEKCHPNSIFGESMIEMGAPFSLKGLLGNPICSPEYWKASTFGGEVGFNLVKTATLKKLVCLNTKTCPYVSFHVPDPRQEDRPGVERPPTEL
Protocol: The ovine COX-1 and COX-2 activities and the measurement of the prostaglandin products synthesized were performed using the COX Inhibitor Screening Assay (Cayman Chemical, Ann Arbor, Mich., which also contained the Prostaglandin Screening EIA Kit, used for prostaglandin quantification). The test compounds were dissolved at 50 times the highest final reaction concentration in DMSO or any other suitable solvent as stock solutions. These stock solutions were then diluted in the same solvent. Eight glass test tubes (13×100 mm) were placed in a 37° C. water bath. To each test tube was added 950 μL of reaction buffer (0.1 M Tris-HCl, pH 8.0, containing 5 mM EDTA, and 2 mM phenol), 10 μL of 100 µM heme solution, and 10 μL (5 units) of either ovine COX-1 or COX-2 and the resulting mixture was incubated with the enzyme for 2 minutes. Twenty μL of the solvent was added to one tube (100% initial activity or solvent control) and 20 μL of each dilution of the test compound was added to one tube each. Each tube was vortexed immediately after the addition. The enzyme was incubated with the inhibitor for 3.5 minutes at 37° C. The enzymatic reaction was then initiated by the addition of 10 μL of freshly prepared 10 mM arachidonic acid (neutralized with KOH), vortexed and then incubated for 2 minutes at 37° C. The reaction was terminated by the addition of 50 μL of 1 M HCl, vortexed and placed at room temperature. One hundred microliters of a saturated stannous chloride solution (50 mg/mL of 0.1 M HCl) was added and the reaction mixture was allowed to stand at room temperature for at least 5 minutes.
The prostaglandins (PG) produced in the reactions were assayed, after a 2,000-fold dilution, using the Prostaglandin Screening EIA Kit (Cayman Chemical, Ann Arbor, Mich.). The assay-contains an antibody with broad specificity for all the prostaglandin families (PGF, PGE, PGD, and thromboxane B-type) synthesized in the COX-1/COX 2 reactions. The synthesized prostaglandin competes with a PG-tagged acetylcholine esterase tracer for binding to the PG antibody. Binding of synthesized PG lowers the calorimetric development of the Ellman's Reagent (computed as % B/B0). The actual amount of synthesized PG was interpolated from a standard curve using known amounts of supplied prostaglandin E2 (PGE2) (PGE2 concentration vs. % B/B0). The data generated were the mean±standard deviation of triplicate wells in the EIA for a single reaction at a given inhibitor concentration.

NS(=O)(=O)c1ccc(-c2c(-c3ccccc3)noc2CO[N+](=O)[O-])cc1 [Example 2b, 4-(5-((Nitrooxy)methyl)-3-phenylisoxazol-4-yl)benzenesulfonamide]
paw volume (antiinflammatory activity) [1]: reduced the paw volume | relaxation of aortic smooth muscle ring ([2]; 100 nM to 100 μM test compound): induced the relaxation of the aortic ring | relaxation compared with reference NO donor (ISDN or GSNO) ([2]; comparator as in the value): comparable to that obtained with ISDN | inhibition at 100 µM ([3]; Ovine COX-1 (footnote a), at 100 μM): 0% | IC50 ([3]; ovine COX-1): > 300 µM
